Test results: patent publication US10233191B2, “Fused piperidine amides as modulators of ion channels” (Vertex Pharmaceuticals Incorporated, priority 2013, dated 2019)

Molecular target: T1, NaV 1.7 (Homo sapiens, UniProt Q15858)
T1 construct: expressed in transfected cells; host or cells: HEK cells
Test: E-VIPR optical membrane potential assay with electrical stimulation
Format: cell-based
Conditions: active against one or more sodium channels; assay/subtype not specified in Table 4; read-out: IC50 Binned Activity Data
Text: E-VIPR Optical Membrane Potential Assay Method with Electrical Stimulation
Sodium channels are voltage-dependent proteins that can be activated by inducing membrane voltage changes by applying electric fields. The electrical stimulation instrument and methods of use are described in Ion Channel Assay Methods PCT/US01/21652, herein incorporated by reference and are referred to as E-VIPR. The instrument comprises a microtiter plate handler, an optical system for exciting the coumarin dye while simultaneously recording the coumarin and oxonol emissions, a waveform generator, a current- or voltage-controlled amplifier, and a device for inserting electrodes in well. Under integrated computer control, this instrument passes user-programmed electrical stimulus protocols to cells within the wells of the microtiter plate.
24 hours before the assay on E-VIPR, HEK cells expressing human NaV subtype, like NaV 1.7, are seeded in 384-well poly-lysine coated plates at 15,000-20,000 cells per well. Other subtypes are performed in an analogous mode in a cell line expressing the NaV of interest. HEK cells are grown in media (exact composition is specific to each cell type and NaV subtype) supplemented with 10% FBS (Fetal Bovine Serum, qualified; GibcoBRL #16140-071) and 1% Pen-Strep (Penicillin-Streptomycin; GibcoBRL #15140-122). Cells are grown in vented cap flasks, in 90% humidity and 10% CO2, to 100% confluence. They are usually split by trypsinization 1:10 or 1:20, depending on scheduling needs, and grown for 2-3 days before the next split.
• 100 mg/mL Pluronic F-127 (Sigma #P2443), in dry DMSO • Compound Plates: 384-well round bottom plate, e.g. Corning 384-well Polypropylene Round Bottom #3656 • Cell Plates: 384-well tissue culture treated plate, e.g. Greiner #781091-1B • 10 mM DiSBAC6(3) (Aurora #00-100-010) in dry DMSO • 10 mM CC2-DMPE (Aurora #00-100-008) in dry DMSO • 200 mM ABSC1 in H2O
Bath1 buffer. Glucose 10 mM (1.8 g/L), Magnesium Chloride (Anhydrous), 1 mM (0.095 g/L), Calcium Chloride, 2 mM (0.222 g/L), HEPES 10 mM (2.38 g/L), Potassium Chloride, 4.5 mM (0.335 g/L), Sodium Chloride 160 mM (9.35 g/L).
Hexyl Dye Solution: Bath1 Buffer+0.5% β-cyclodextrin (make this prior to use, Sigma #C4767), 8 μM CC2-DMPE+2.5 μM DiSBAC6(3). To make the solution Add volume of 10% Pluronic F127 stock equal to volumes of CC2-DMPE+DiSBAC6(3). The order of preparation is first mix Pluronic and CC2-DMPE, then add DiSBAC6(3) while vortexing, then add Bath1+β-Cyclodextrin.
1) Pre-spot compounds (in neat DMSO) into compound plates. Vehicle control (neat DMSO), the positive control (20 mM DMSO stock tetracaine, 125 μM final in assay) and test compounds are added to each well at 160× desired final concentration in neat DMSO. Final compound plate volume will be 80 μL (80-fold intermediate dilution from 1 μL DMSO spot; 160-fold final dilution after transfer to cell plate). Final DMSO concentration for all wells in assay is 0.625%.
2) Prepare Hexyl Dye Solution.
3) Prepare cell plates. On the day of the assay, medium is aspirated and cells are washed three times with 100 μL of Bath1 Solution, maintaining 25 μL residual volume in each well.
4) Dispense 25 μL per well of Hexyl Dye Solution into cell plates. Incubate for 20-35 minutes at room temp or ambient conditions.
5) Dispense 80 μL per well of Bath1 into compound plates. Acid Yellow-17 (1 mM) is added and Potassium Chloride can be altered from 4.5 to 20 mM depending on the NaV subtype and assay sensitivity.
6) Wash cell plates three times with 100 μL per well of Bath1, leaving 25 μL of residual volume. Then transfer 25 uL per well from Compound Plates to Cell Plates. Incubate for 20-35 minutes at room temp/ambient condition
7) Read Plate on E-VIPR. Use the current-controlled amplifier to deliver stimulation wave pulses for typically 9 seconds and a scan rate of 400 Hz. A pre-stimulus recording is performed for 0.5 seconds to obtain the un-stimulated intensities baseline. […]

T1 sequence (Q15858 whole entry): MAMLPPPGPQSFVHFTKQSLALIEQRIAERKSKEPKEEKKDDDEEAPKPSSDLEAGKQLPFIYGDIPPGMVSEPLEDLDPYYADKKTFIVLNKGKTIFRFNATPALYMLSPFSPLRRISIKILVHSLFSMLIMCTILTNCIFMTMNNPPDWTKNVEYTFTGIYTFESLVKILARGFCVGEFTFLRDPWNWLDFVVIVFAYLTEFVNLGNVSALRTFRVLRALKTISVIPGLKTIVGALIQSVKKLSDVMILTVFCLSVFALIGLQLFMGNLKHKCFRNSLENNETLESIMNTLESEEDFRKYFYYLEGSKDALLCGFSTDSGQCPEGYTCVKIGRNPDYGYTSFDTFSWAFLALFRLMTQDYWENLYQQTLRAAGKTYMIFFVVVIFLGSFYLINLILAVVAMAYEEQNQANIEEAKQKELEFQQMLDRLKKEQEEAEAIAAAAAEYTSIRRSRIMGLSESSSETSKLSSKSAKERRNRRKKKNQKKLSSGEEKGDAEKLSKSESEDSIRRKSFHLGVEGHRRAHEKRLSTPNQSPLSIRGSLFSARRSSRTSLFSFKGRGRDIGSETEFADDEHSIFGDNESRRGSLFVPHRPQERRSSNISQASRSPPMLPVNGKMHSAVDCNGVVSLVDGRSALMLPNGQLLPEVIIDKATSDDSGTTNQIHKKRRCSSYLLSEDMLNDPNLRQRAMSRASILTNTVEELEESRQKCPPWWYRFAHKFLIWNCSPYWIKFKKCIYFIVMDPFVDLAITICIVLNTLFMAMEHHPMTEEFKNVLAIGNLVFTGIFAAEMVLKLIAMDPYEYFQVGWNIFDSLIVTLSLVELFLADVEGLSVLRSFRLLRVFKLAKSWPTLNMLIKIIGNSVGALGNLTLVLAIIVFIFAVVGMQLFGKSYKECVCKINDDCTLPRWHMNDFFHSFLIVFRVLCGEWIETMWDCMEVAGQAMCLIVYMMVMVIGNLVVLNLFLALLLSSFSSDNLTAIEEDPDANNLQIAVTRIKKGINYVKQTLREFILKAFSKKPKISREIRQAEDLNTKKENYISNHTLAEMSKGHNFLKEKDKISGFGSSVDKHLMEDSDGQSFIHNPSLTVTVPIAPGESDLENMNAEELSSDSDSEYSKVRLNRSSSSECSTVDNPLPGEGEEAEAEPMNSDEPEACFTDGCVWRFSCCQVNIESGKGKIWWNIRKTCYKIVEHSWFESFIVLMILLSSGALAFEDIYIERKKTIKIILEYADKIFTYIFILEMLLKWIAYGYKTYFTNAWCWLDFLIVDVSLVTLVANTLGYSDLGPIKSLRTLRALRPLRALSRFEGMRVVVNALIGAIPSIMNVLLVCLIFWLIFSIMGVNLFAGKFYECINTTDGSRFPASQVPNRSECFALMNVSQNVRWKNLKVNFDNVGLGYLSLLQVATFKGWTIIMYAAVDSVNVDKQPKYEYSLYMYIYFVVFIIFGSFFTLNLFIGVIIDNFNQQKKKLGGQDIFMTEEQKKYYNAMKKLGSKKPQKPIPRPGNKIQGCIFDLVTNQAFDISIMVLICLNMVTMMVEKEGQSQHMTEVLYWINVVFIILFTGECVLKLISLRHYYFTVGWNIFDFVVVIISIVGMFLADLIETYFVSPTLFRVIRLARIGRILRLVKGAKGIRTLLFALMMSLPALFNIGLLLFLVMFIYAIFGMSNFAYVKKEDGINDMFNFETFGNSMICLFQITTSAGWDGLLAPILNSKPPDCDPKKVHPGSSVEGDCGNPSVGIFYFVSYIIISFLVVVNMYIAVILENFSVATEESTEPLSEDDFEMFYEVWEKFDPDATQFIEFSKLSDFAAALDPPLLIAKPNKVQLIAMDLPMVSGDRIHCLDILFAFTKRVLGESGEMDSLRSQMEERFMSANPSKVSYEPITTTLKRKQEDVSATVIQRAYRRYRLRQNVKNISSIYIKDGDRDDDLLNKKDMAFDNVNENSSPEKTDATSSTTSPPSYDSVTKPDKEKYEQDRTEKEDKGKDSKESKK

| SMILES | IC50 |
| --- | --- |
| COc1cc(C(=O)N2CC[C@]3(c4cc(F)cc(F)c4)OCOC3C2)ccc1OCCOC(F)(F)F (stereo partly shown) [Compound 4] | ≤ 2000 nM |
| COc1cc(C(=O)N2CC[C@]3(c4ccccn4)OCOC3C2)cc(F)c1OCCC(F)(F)F (stereo partly shown) [Compound 40] | ≤ 2000 nM |
| COc1nc(C(=O)N2CC[C@]3(c4cccc(C(F)(F)F)n4)OCOC3C2)ccc1OCCOC(F)(F)F (stereo partly shown) [Compound 272] | ≤ 2000 nM |
| COc1cc(C(=O)N2CC[C@]3(c4ccccc4)OCOC3C2)ccc1OCC(C)(C)O (stereo partly shown) [Compound 42] | ≤ 2000 nM |
| COc1cc(C(=O)N2CC[C@]3(c4ccccc4)OCOC3C2)ccc1OC(C)C(F)(F)F (stereo partly shown) [Compound 117] | ≤ 2000 nM |
| CC(C)Oc1ccc(C(=O)N2CCC3(c4ccccc4)CC3C2)cc1C#N (stereo not shown) [Compound 35] | ≤ 2000 nM |
| [2H]C1([2H])OC2CN(C(=O)c3ccc(OCCOC(F)(F)F)c(C)n3)CC[C@]2(c2cccc(F)c2)O1 (stereo partly shown) [Compound 306] | ≤ 2000 nM |
| COc1cc(C(=O)N2CC[C@]3(c4ccc(F)cc4)OCOC3C2)ccc1COCCC(F)(F)F (stereo partly shown) [Compound 32] | ≤ 2000 nM |
| O=C(c1ccc(OCC2CC(F)(F)C2)c(Cl)c1)N1CC[C@@]2(c3ccccn3)COC2C1 (stereo partly shown) [Compound 208] | ≤ 2000 nM |
| CC(C)Oc1ccc(C(=O)N2CCC3(c4ccccc4)CC3C2)cn1 (stereo not shown) [Compound 10] | > 5000 nM |
| COc1cc(C(=O)N2CC[C@]3(c4nccs4)OCOC3C2)ccc1OCC(C)(C)F (stereo partly shown) [Compound 24] | 2000 to 5000 nM |
| COc1nc(C(=O)N2CCC3(c4ccc(F)cc4)CC3C2)ccc1OCCOC(F)(F)F (stereo not shown) [Compound 299] | ≤ 2000 nM |
| [2H]C1([2H])OC2CN(C(=O)c3ccc(OCCOC(F)(F)F)c(OC)n3)CC[C@]2(c2cccc(F)c2)O1 (stereo partly shown) [Compound 189] | ≤ 2000 nM |
| Cc1cc(C(=O)N2CC[C@]3(c4ccccn4)OCOC3C2)ccc1OCC(C)(C)F (stereo partly shown) [Compound 95] | ≤ 2000 nM |
| O=C(c1ccc2c(c1)OCC(COC(F)(F)F)O2)N1CC[C@]2(c3ccccc3)OCOC2C1 (stereo partly shown) [Compound 51] | 2000 to 5000 nM |
| Cc1cc(C(=O)N2CC[C@]3(c4ccccc4)C[C@@H]3C2)ccc1OCC(C)(C)O [Compound 133] | ≤ 2000 nM |
| COc1nc(C(=O)N2CC[C@]3(c4cccc(F)c4)OCOC3C2)ccc1OCC1CC(F)(F)C1(F)F (stereo partly shown) [Compound 254] | ≤ 2000 nM |
| O=C(c1cccc2cccnc12)N1CCC2(c3ccccc3)OCC2C1 (stereo not shown) [Compound 33] | ≤ 2000 nM |
| COc1cc(C(=O)N2CC[C@@]3(c4ccccc4)OCOC3C2)ccc1OCC(C)(C)F (stereo partly shown) [Compound 36] | ≤ 2000 nM |
| O=C(c1ccc(OCC(F)(F)C(F)F)c(C(F)(F)F)c1)N1CC[C@]2(c3ccccn3)OCOC2C1 (stereo partly shown) [Compound 123] | ≤ 2000 nM |
| COc1nc(C(=O)N2CC[C@]3(c4cccc(F)c4)OCOC3C2)ccc1O[C@@H]1CC2[C@H](C1)C2(F)F (stereo partly shown) [Compound 230] | ≤ 2000 nM |
| O=C(c1cnc(OCCOC(F)(F)F)c(Cl)c1)N1CCC2(c3ccc(F)cc3)CC2C1 (stereo not shown) [Compound 296] | 2000 to 5000 nM |
| O=C(c1ccc(OCCOC(F)(F)F)c(Cl)c1)N1CC[C@@]2(c3nccs3)OCOC2C1 (stereo partly shown) [Compound 138] | ≤ 2000 nM |
| Cc1cc(C(=O)N2CC[C@]3(c4cscn4)OCOC3C2)ccc1OCC(C)(C)F (stereo partly shown) [Compound 52] | 2000 to 5000 nM |
| COc1cc(C(=O)N2CCC3(c4ccc(F)cc4)CC3C2)ccc1OCC1CC(F)(F)C1 (stereo not shown) [Compound 298] | ≤ 2000 nM |
| COc1cc(C(=O)N2CCC3(c4ccccn4)C(C2)C3(F)F)ccc1OCCOC(F)(F)F (stereo not shown) [Compound 260] | ≤ 2000 nM |

| SMILES | IC50 |
| --- | --- |
| Cc1nc([C@]23CCN(C(=O)c4ccc(OCCOC(F)(F)F)c(C)c4)CC2OCO3)cs1 (stereo partly shown) [Compound 144] | ≤ 2000 nM |
| COc1nc(C(=O)N2CC[C@]3(c4cccc(Cl)c4)OCOC3C2)ccc1OCCOC(F)(F)F (stereo partly shown) [Compound 183] | ≤ 2000 nM |
| COc1cc(C(=O)N2CC[C@]3(c4cccc(F)c4F)OCOC3C2)ccc1OCC1CC(F)(F)C1 (stereo partly shown) [Compound 184] | ≤ 2000 nM |
| Cc1cc(C(=O)N2CC[C@]3(c4ncccn4)OCOC3C2)ccc1OCC(C)(C)F (stereo partly shown) [Compound 27] | ≤ 2000 nM |
| Cc1cc(C(=O)N2CC[C@@]3(c4nccs4)OCOC3C2)ccc1OCCOC(F)(F)F (stereo partly shown) [Compound 168] | ≤ 2000 nM |
| COc1cc(C(=O)N2CC[C@]3(c4cccc(F)c4F)OCOC3C2)ccc1O[C@@H](C)C(F)(F)F (stereo partly shown) [Compound 258] | ≤ 2000 nM |
| COc1nc(C(=O)N2CC[C@]3(c4cccc(F)c4)OCOC3C2)ccc1OC1CC(F)(F)C1 (stereo partly shown) [Compound 233] | ≤ 2000 nM |
| Cc1cc(C(=O)N2CC[C@]3(c4nccs4)OCOC3C2)ccc1OCC(C)(C)F (stereo partly shown) [Compound 97] | ≤ 2000 nM |
| CC(C)Oc1ccc(C(=O)N2CCC3(c4ccccc4)CC3C2)c(F)c1 (stereo not shown) [Compound 19] | 2000 to 5000 nM |
| COc1cc(C(=O)N2CC[C@]3(c4ncccc4Cl)OCOC3C2)ccc1OCCOC(F)(F)F (stereo partly shown) [Compound 155] | ≤ 2000 nM |
| COc1cc(C(=O)N2CC[C@]3(c4ccccn4)OCOC3C2)ccc1OCC1CC(F)(F)C1 (stereo partly shown) [Compound 90] | ≤ 2000 nM |
| COc1nc(C(=O)N2CC[C@]3(c4cccc(F)c4)OCOC3C2)ccc1OCC1CCC(F)(F)C1 (stereo partly shown) [Compound 235] | ≤ 2000 nM |
| Cc1cc(C(=O)N2CC[C@]3(c4nccs4)OCOC3C2)ccc1OCC(F)(F)F (stereo partly shown) [Compound 70] | ≤ 2000 nM |
| COc1nc(C(=O)N2CC[C@]3(c4cccc(C(F)(F)F)n4)OCOC3C2)ccc1OCC1CC(F)(F)C1 (stereo partly shown) [Compound 267] | ≤ 2000 nM |
| CC(C)(F)COc1ccc(C(=O)N2CC[C@]3(c4ccccn4)OCO[C@@H]3C2)cc1C(F)(F)F [Compound 127] | ≤ 2000 nM |
| COc1cc(C(=O)N2CCC3(c4ccccc4)CC3C2)ccc1OCCOC(F)(F)F (stereo not shown) [Compound 195] | ≤ 2000 nM |
| O=C(c1ccc(OCCOC(F)(F)F)c(Cl)c1)N1CC[C@]2(c3ncccc3F)OCOC2C1 (stereo partly shown) [Compound 145] | ≤ 2000 nM |
| COc1nc(C(=O)N2CC[C@@]3(c4ccccn4)COC3C2)ccc1OCC(F)(F)C(F)F (stereo partly shown) [Compound 209] | ≤ 2000 nM |
| COc1cc(C(=O)N2CC[C@]3(c4cccc(F)c4)OCOC3C2)ccc1OC(C)C(F)(F)C(F)F (stereo partly shown) [Compound 239] | ≤ 2000 nM |
| Cc1cc(C(=O)N2CC[C@]3(c4cc(C(F)(F)F)ccn4)OCOC3C2)ccc1OCC(C)(C)F (stereo partly shown) [Compound 2] | ≤ 2000 nM |
| O=C(c1ccc(OCCOC(F)(F)F)c(Cl)c1)N1CC[C@]2(c3ccccn3)OCOC2C1 (stereo partly shown) [Compound 157] | ≤ 2000 nM |
| COc1cc(C(=O)N2CC[C@]3(c4ncccn4)OCOC3C2)ccc1OCCOC(F)(F)F (stereo partly shown) [Compound 12] | > 5000 nM |
| CCS(=O)(=O)c1ccc(C(=O)N2CCC3(c4ccccc4)CC3C2)cc1C (stereo not shown) [Compound 15] | 2000 to 5000 nM |
| COc1nc(C(=O)N2CC[C@@]3(c4cccc(F)c4)OCOC3C2)ccc1OCC1(C(F)(F)F)CC1 (stereo partly shown) [Compound 213] | ≤ 2000 nM |
| COc1nc(C(=O)N2CC[C@]3(c4cccc(F)c4F)OCOC3C2)ccc1OCCOC(F)(F)F (stereo partly shown) [Compound 162] | ≤ 2000 nM |
| Cc1nc(C(=O)N2CC[C@]3(c4ncccc4Cl)OCOC3C2)ccc1OC(C)C (stereo partly shown) [Compound 67] | ≤ 2000 nM |
